Toxic doses and inconclusive results are not listed.
System: L1210 leukemia ip in BDF1 mice, survival T/C
Assay: NCI In Vivo Anticancer Drug Screen. Data for tumor model L1210 Leukemia (intraperitoneal) in B6D2F1 (BDF1) mice
Conditions: endpoint: mean survival time, higher = longer survival
Outline: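 Transplanted-tumor mice were given test agent; controls received vehicle only. Survival readings from the two groups were divided (treated over control).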

[1] = dose: 50.0 mg/kg/injection, schedule: Q01DX001 (ip), vehicle: carboxymethylcellulose (CMC)
[2] = dose: 100.0 mg/kg/injection, schedule: Q04DX002 (ip), vehicle: Klucel (hydroxypropylcellulose) (HPC)
[3] = dose: 200.0 mg/kg/injection, schedule: Q04DX002 (ip), vehicle: Klucel (hydroxypropylcellulose) (HPC)
[4] = dose: 75.0 mg/kg/injection, schedule: Q01DX001 (ip), vehicle: saline
[5] = dose: 150.0 mg/kg/injection, schedule: Q01DX001 (ip), vehicle: saline
[6] = dose: 400.0 mg/kg/injection, schedule: Q04DX002 (ip), vehicle: Klucel (hydroxypropylcellulose) (HPC)
[7] = dose: 100.0 mg/kg/injection, schedule: Q04DX003 (ip), vehicle: Klucel (hydroxypropylcellulose) (HPC)
[8] = dose: 200.0 mg/kg/injection, schedule: Q04DX003 (ip), vehicle: Klucel (hydroxypropylcellulose) (HPC)
[9] = dose: 400.0 mg/kg/injection, schedule: Q04DX003 (ip), vehicle: Klucel (hydroxypropylcellulose) (HPC)

With `O=NN(CCCl)C(=O)Nc1ccc(C(F)(F)F)cc1` the T/C (dose: 4.6 mg/kg/injection, schedule: Q01DX Z (ip), vehicle: carboxymethylcellulose (CMC)) was 154 % of control, the T/C (dose: 9.37 mg/kg/injection, schedule: Q01DX Z (ip), vehicle: carboxymethylcellulose (CMC)) was 166 % of control and the T/C (dose: 18.75 mg/kg/injection, schedule: Q01DX Z (ip), vehicle: carboxymethylcellulose (CMC)) was 190 % of control. The T/C (dose: 37.5 mg/kg/injection, schedule: Q01DX Z (ip), vehicle: carboxymethylcellulose (CMC)) was 108 % of control, the T/C [1] was 151 % of control and the T/C (dose: 75.0 mg/kg/injection, schedule: Q01DX001 (ip), vehicle: carboxymethylcellulose (CMC)) was 167 % of control.

With `CCC(C)COC(=O)c1cccc2c1-c1ccccc1C2=O` (configuration not stated) the T/C (dose: 100.0 mg/kg/injection, schedule: Q01DX001 (ip), vehicle: other) was 98 % of control, the T/C (dose: 200.0 mg/kg/injection, schedule: Q01DX001 (ip), vehicle: other) was 88 % of control and the T/C (dose: 400.0 mg/kg/injection, schedule: Q01DX001 (ip), vehicle: other) was 93 % of control.

For `CC(=O)Oc1ccc(N2CC=C(c3ccccc3)CC2)cc1`, the T/C [2] was 89 % of control and the T/C [3] was 95 % of control.

For `Cc1ccc(-n2c(O)c(N=Nc3ccc(Cl)cc3)c(=O)n(-c3ccc(C)cc3)c2=S)cc1`, the T/C (dose: 37.5 mg/kg/injection, schedule: Q01DX001 (ip), vehicle: Klucel (hydroxypropylcellulose) (HPC)) was 97 % of control, the T/C (dose: 75.0 mg/kg/injection, schedule: Q01DX001 (ip), vehicle: Klucel (hydroxypropylcellulose) (HPC)) was 107 % of control and the T/C (dose: 150.0 mg/kg/injection, schedule: Q01DX001 (ip), vehicle: Klucel (hydroxypropylcellulose) (HPC)) was 96 % of control.

`CC(=O)OC1CC2C(CCC3(C)C(C(C)=O)CCC23)C2(C)CCC(O)C=C12` (configuration not stated) was tested, and the T/C (dose: 75.0 mg/kg/injection, schedule: Q01DX001 (ip), vehicle: other) was 101 % of control, the T/C (dose: 150.0 mg/kg/injection, schedule: Q01DX001 (ip), vehicle: other) was 98 % of control and the T/C (dose: 300.0 mg/kg/injection, schedule: Q01DX001 (ip), vehicle: other) was 103 % of control.

For `C[n+]1cc(C#N)cc(C#N)c1`, the T/C [4] was 90 % of control and the T/C [5] was 108 % of control.

`COCCN(N=O)C(=O)NC1CCCCC1` was tested, and the T/C (dose: 700.0 mg/kg/injection, schedule: Q01DX001 (ip), vehicle: carboxymethylcellulose (CMC)) was 124 % of control, the T/C (dose: 800.0 mg/kg/injection, schedule: Q01DX001 (ip), vehicle: carboxymethylcellulose (CMC)) was 124 % of control and the T/C (dose: 1000.0 mg/kg/injection, schedule: Q01DX001 (ip), vehicle: carboxymethylcellulose (CMC)) was 117 % of control.

`COc1cccc(C(N)=O)c1` was tested, and the T/C [2] was 97 % of control, the T/C [3] was 97 % of control and the T/C [6] was 104 % of control.

`CCOC(=O)Cc1ccc(CC(=O)OCC)cc1` was tested, and the T/C (dose: 75.0 mg/kg/injection, schedule: Q04DX003 (ip), vehicle: saline) was 100 % of control, the T/C (dose: 150.0 mg/kg/injection, schedule: Q04DX003 (ip), vehicle: saline) was 105 % of control and the T/C (dose: 300.0 mg/kg/injection, schedule: Q04DX003 (ip), vehicle: saline) was 96 % of control.

In the case of `OCCC[P+](c1ccccc1)(c1ccccc1)c1ccccc1`, the T/C (dose: 25.0 mg/kg/injection, schedule: Q01DX009 (ip), vehicle: Klucel (hydroxypropylcellulose) (HPC)) is reported as 96 % of control, the T/C (dose: 50.0 mg/kg/injection, schedule: Q01DX009 (ip), vehicle: Klucel (hydroxypropylcellulose) (HPC)) is reported as 100 % of control and the T/C [7] is reported as 102 % of control.

`Cc1ncc(CO)c(Nc2ccccc2Cl)n1` was tested, and the T/C (dose: 12.5 mg/kg/injection, schedule: Q04DX003 (ip), vehicle: Klucel (hydroxypropylcellulose) (HPC)) was 88 % of control, the T/C (dose: 25.0 mg/kg/injection, schedule: Q04DX003 (ip), vehicle: Klucel (hydroxypropylcellulose) (HPC)) was 102 % of control and the T/C (dose: 50.0 mg/kg/injection, schedule: Q04DX003 (ip), vehicle: Klucel (hydroxypropylcellulose) (HPC)) was 98 % of control.

In the case of `O=C(O)c1ccc2c(c1)C(=O)c1ccccc1C2=O`, the T/C (dose: 100.0 mg/kg/injection, schedule: Q04DX002 (ip), vehicle: saline with Tween-80) is reported as 105 % of control and the T/C (dose: 200.0 mg/kg/injection, schedule: Q04DX002 (ip), vehicle: saline with Tween-80) is reported as 99 % of control.

For `O=C(C[n+]1ccc2ccccc2c1)c1ccc([N+](=O)[O-])cc1`, the T/C (dose: 12.5 mg/kg/injection, schedule: Q04DX003 (ip), vehicle: saline) was 101 % of control, the T/C (dose: 25.0 mg/kg/injection, schedule: Q04DX003 (ip), vehicle: saline) was 103 % of control and the T/C (dose: 50.0 mg/kg/injection, schedule: Q04DX003 (ip), vehicle: saline) was 107 % of control.

For `CCCCNC(=O)Nc1ccccc1CC`, the T/C (dose: 100.0 mg/kg/injection, schedule: Q01DX009 (ip), vehicle: Klucel (hydroxypropylcellulose) (HPC)) was 93 % of control, the T/C [7] was 95 % of control and the T/C (dose: 200.0 mg/kg/injection, schedule: Q01DX009 (ip), vehicle: Klucel (hydroxypropylcellulose) (HPC)) was 96 % of control. For the same compound, the T/C [8] was 106 % of control, the T/C (dose: 400.0 mg/kg/injection, schedule: Q01DX009 (ip), vehicle: Klucel (hydroxypropylcellulose) (HPC)) was 93 % of control and the T/C [9] was 97 % of control.

`O=C(CCCC(=O)N=Nc1c(Cl)c(O)c2ccccc2c1O)N=Nc1c(Cl)c(O)c2ccccc2c1O` was tested, and the T/C (dose: 100.0 mg/kg/injection, schedule: Q01DX001 (ip), vehicle: carboxymethylcellulose (CMC)) was 118 % of control, the T/C (dose: 200.0 mg/kg/injection, schedule: Q01DX001 (ip), vehicle: carboxymethylcellulose (CMC)) was 101 % of control and the T/C (dose: 400.0 mg/kg/injection, schedule: Q01DX001 (ip), vehicle: carboxymethylcellulose (CMC)) was 103 % of control.

With `CC(C)(C)C1CCC(N)CC1` (configuration not stated) the T/C (dose: 12.5 mg/kg/injection, schedule: Q01DX001 (ip), vehicle: carboxymethylcellulose (CMC)) was 104 % of control, the T/C (dose: 25.0 mg/kg/injection, schedule: Q01DX001 (ip), vehicle: carboxymethylcellulose (CMC)) was 98 % of control and the T/C [1] was 104 % of control.

For `O=C1OC(c2ccc([N+](=O)[O-])cc2)=N/C1=C\c1ccc(Cl)c(Cl)c1`, the T/C [2] was 108 % of control, the T/C [3] was 97 % of control and the T/C [6] was 101 % of control.

For `O=c1[nH]c(=O)[nH]c(=S)[nH]1`, the T/C (dose: 100.0 mg/kg/injection, schedule: Q01DX Z (ip), vehicle: methylcellulose (MC)) was 98 % of control and the T/C (dose: 200.0 mg/kg/injection, schedule: Q01DX Z (ip), vehicle: methylcellulose (MC)) was 87 % of control.

For `CCC1([N+](=O)[O-])COP(N)(=O)OC1` (configuration not stated), the T/C (dose: 5.0 mg/kg/injection, schedule: Q01DX001 (ip), vehicle: saline) was 105 % of control, the T/C (dose: 10.0 mg/kg/injection, schedule: Q01DX001 (ip), vehicle: saline) was 107 % of control and the T/C (dose: 20.0 mg/kg/injection, schedule: Q01DX001 (ip), vehicle: saline) was 124 % of control. The T/C (dose: 40.0 mg/kg/injection, schedule: Q01DX001 (ip), vehicle: saline) was 100 % of control and the T/C (dose: 80.0 mg/kg/injection, schedule: Q01DX001 (ip), vehicle: saline) was 96 % of control.

For `CN(C)C(=O)NCc1cccnc1`, the T/C (dose: 100.0 mg/kg/injection, schedule: Q04DX013 (ip), vehicle: saline) was 100 % of control, the T/C (dose: 200.0 mg/kg/injection, schedule: Q04DX013 (ip), vehicle: saline) was 94 % of control and the T/C (dose: 400.0 mg/kg/injection, schedule: Q04DX013 (ip), vehicle: saline) was 101 % of control.

For `CC(=O)Nc1nc(NC(C)=O)c2nc(CCN(C)c3ccc(C(=O)O)cc3)cnc2n1`, the T/C [4] was 106 % of control, the T/C [7] was 95 % of control and the T/C [5] was 101 % of control. The T/C [8] was 95 % of control, the T/C (dose: 300.0 mg/kg/injection, schedule: Q01DX001 (ip), vehicle: saline) was 101 % of control and the T/C [9] was 100 % of control.

In the case of `CCCC(=O)c1cc(O)c(O)cc1O`, the T/C (dose: 50.0 mg/kg/injection, schedule: Q01DX009 (ip), vehicle: saline with Tween-80) is reported as 96 % of control, the T/C (dose: 100.0 mg/kg/injection, schedule: Q04DX003 (ip), vehicle: saline with Tween-80) is reported as 95 % of control and the T/C (dose: 200.0 mg/kg/injection, schedule: Q04DX003 (ip), vehicle: saline with Tween-80) is reported as 105 % of control.

With `NC(=S)N/N=C/c1c(Cl)n(C(=O)c2ccc(Cl)cc2)c2ccccc12` the T/C (dose: 50.0 mg/kg/injection, schedule: Q04DX002 (ip), vehicle: Klucel (hydroxypropylcellulose) (HPC)) was 91 % of control, the T/C [2] was 87 % of control and the T/C [3] was 91 % of control.

For `O=C(Cl)c1c(Cl)c(Cl)c(C(=O)Cl)c(Cl)c1Cl`, the T/C (dose: 25.0 mg/kg/injection, schedule: Q01DX009 (ip), vehicle: saline) was 90 % of control, the T/C (dose: 50.0 mg/kg/injection, schedule: Q01DX009 (ip), vehicle: saline) was 97 % of control and the T/C (dose: 100.0 mg/kg/injection, schedule: Q01DX001 (ip), vehicle: saline) was 98 % of control. The T/C (dose: 100.0 mg/kg/injection, schedule: Q04DX003 (ip), vehicle: saline) was 100 % of control, the T/C (dose: 200.0 mg/kg/injection, schedule: Q01DX001 (ip), vehicle: saline) was 98 % of control and the T/C (dose: 400.0 mg/kg/injection, schedule: Q01DX001 (ip), vehicle: saline) was 104 % of control.

From PubChem BioAssay AID248 (DTP/NCI, 2004)
